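At the GI50, growth is halved. At the TGI there is no net growth.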
Tests used:
Experiment in all cases: DTP human tumour cell line panel, 384-well format
[1] = test system: OVCAR-4 ovarian
[2] = test system: TK-10 renal
[3] = test system: MDA-MB-468 breast
[4] = test system: HCT-15 colon
[5] = test system: CAKI-1 renal
[6] = test system: SNB-75 CNS
[7] = test system: OVCAR-8 ovarian
[8] = test system: BT-549 breast
[9] = test system: NCI-H322M lung
[10] = test system: HCC-2998 colon
[11] = test system: MDA-MB-231 breast
[12] = test system: PC-3 prostate
[13] = test system: NCI-H23 lung
[14] = test system: A498 renal
[15] = test system: IGROV1 ovarian
[16] = test system: DU-145 prostate
[17] = test system: SK-OV-3 ovarian
[18] = test system: SF-539 CNS
[19] = test system: MALME-3M melanoma
[20] = test system: NCI/ADR-RES ovarian
[21] = test system: HOP-62 NSCLC
[22] = test system: HCT-116 colon
[23] = test system: UACC-62 melanoma
[24] = test system: SN12C renal
[25] = test system: NCI-H226 lung
[26] = test system: SW-620 colon
[27] = test system: MOLT-4 leukemia
[28] = test system: MDA-MB-435 melanoma
[29] = test system: SNB-19 CNS

Structure (SMILES): N#CC1(c2ccc(NC(=O)c3cccnc3NCc3ccncc3)cc2)CCCC1
- GI50 [1]: 11.7 µM
- TGI [1]: 30.1 µM
- GI50 [2]: 11.2 µM
- TGI [2]: 28.8 µM
- GI50 [3]: 3.62 µM
- TGI [3]: 14.3 µM
- GI50 [4]: 3.17 µM
- TGI [4]: 12.5 µM
- GI50 [5]: 11.7 µM
- TGI [5]: 25 µM
- GI50 [6]: 7.08 µM
- TGI [6]: 20.7 µM
- GI50 [7]: 11.1 µM
- TGI [7]: 24.7 µM
- GI50 [8]: 8.33 µM
- TGI [8]: 22.9 µM
- GI50 [9]: 12.2 µM
- TGI [9]: 31.2 µM
- GI50 [10]: 5.87 µM
- TGI [10]: 17.3 µM
- GI50 [11]: 4.96 µM
- TGI [11]: 20.3 µM
- GI50 [12]: 9.47 µM
- TGI [12]: 23.1 µM
- GI50 [13]: 9.55 µM
- TGI [13]: 23.1 µM
- GI50 [14]: 7.95 µM
- TGI [14]: 20.5 µM
- GI50 [15]: 13.7 µM
- TGI [15]: 31 µM
- GI50 [16]: 12.3 µM
- TGI [16]: 33.5 µM
- GI50 [17]: 12.1 µM
- TGI [17]: 24.6 µM
- GI50 [18]: 4.43 µM
- TGI [18]: 19.2 µM
- GI50 [19]: 3.09 µM
- TGI [19]: 13.2 µM
- GI50 [20]: 11 µM
- TGI [20]: 27.2 µM
- GI50 [21]: 11.2 µM
- TGI [21]: 23.7 µM
- GI50 [22]: 10.6 µM
- TGI [22]: 22.4 µM
- GI50 [23]: 10.9 µM
- TGI [23]: 22.9 µM
- GI50 [24]: 7.37 µM
- TGI [24]: 25.3 µM
- GI50 [25]: 11 µM
- TGI [25]: 27.5 µM
- GI50 [26]: 8.06 µM
- TGI [26]: 20 µM
- GI50 [27]: 4.64 µM
- TGI [27]: 17.3 µM
- GI50 [28]: 14.5 µM
- TGI [28]: 28.2 µM
- GI50 [29]: 14.3 µM
- TGI [29]: 28.9 µM
